Laboratory results: US9593148B2, “DPP8 and DPP9 peptide inhibitors” (GEORG-AUGUST-UNIVERSITAT GOTTINGEN STIFTUNG OFFENTLICHEN …, priority 2012, dated 2017)
pKi: −log10 of the molar value. No end group written: not given here.

Legend:
HeLa cells [1] = assay: MTT proliferation assay of HeLa cells expressing the peptide; format: cell-based, human; conditions: Ubiquitin-SLRFLYEG-YFP construct, 32 hours after transfection, vs control plasmid or mock
Description: To test whether DPP8/9 inhibition effects cell viability, the inventors performed MTT (3-4,5-dimethylthiazol-2-yl)-2,5-diphenyltetrazolium bromide) based assays, which are widely used to measure cell proliferation and growth (e.g. in clinical settings for testing tumor sensitivity to chemotherapeutic agents). This assay involves the conversion of the water soluble MTT to an insoluble formazan. The formazan is then solubilized in 0.1N HCl. Absorbance is then determined at 570 nm. For a prolonged exposure of cells to the allosteric DPP8/9 inhibitor […] (SEQ ID NO: 38), the inventors cloned the peptide into a mammalian expression vector pEYFP-N1 from Clontech. The peptide inhibitor contains a serine at its amino-termini. Thus, to avoid expression of the peptide with a methionine residue at its amino terminus, it was cloned in frame with ubiquitin. Once expressed in cells, the ubiquitin moiety is cleaved by ubiquitin isopeptidases to release the […]-YFP (SEQ ID NO: 38) construct. A control construct was included that lacked the […] (SEQ ID NO: 38) peptide (Ubiquitin-YFP). […] 32 hours after transfection, cells were analyzed via a standard MTT assay.
Briefly, cell media was removed and replaced by 0.5 mg/ml of MTT reagent. […] Absorbance was measured with a microplate fluorimeter. […]

DPP9 [2] = target: T1, DPP9 (Homo sapiens, UniProt Q86TI2); assay: Inhibition of GP-AMC hydrolysis by purified recombinant DPP9 at a single peptide concentration; format: biochemical; conditions: 25 nM DPP9, 0.2 mM GP-AMC, 10 μM peptide; DPP9 alone = 100.3
T1 construct: made in house; host or cells: Sf9 insect cells (baculovirus)
T1 sequence (Q86TI2 1-892 isoform Q86TI2-2): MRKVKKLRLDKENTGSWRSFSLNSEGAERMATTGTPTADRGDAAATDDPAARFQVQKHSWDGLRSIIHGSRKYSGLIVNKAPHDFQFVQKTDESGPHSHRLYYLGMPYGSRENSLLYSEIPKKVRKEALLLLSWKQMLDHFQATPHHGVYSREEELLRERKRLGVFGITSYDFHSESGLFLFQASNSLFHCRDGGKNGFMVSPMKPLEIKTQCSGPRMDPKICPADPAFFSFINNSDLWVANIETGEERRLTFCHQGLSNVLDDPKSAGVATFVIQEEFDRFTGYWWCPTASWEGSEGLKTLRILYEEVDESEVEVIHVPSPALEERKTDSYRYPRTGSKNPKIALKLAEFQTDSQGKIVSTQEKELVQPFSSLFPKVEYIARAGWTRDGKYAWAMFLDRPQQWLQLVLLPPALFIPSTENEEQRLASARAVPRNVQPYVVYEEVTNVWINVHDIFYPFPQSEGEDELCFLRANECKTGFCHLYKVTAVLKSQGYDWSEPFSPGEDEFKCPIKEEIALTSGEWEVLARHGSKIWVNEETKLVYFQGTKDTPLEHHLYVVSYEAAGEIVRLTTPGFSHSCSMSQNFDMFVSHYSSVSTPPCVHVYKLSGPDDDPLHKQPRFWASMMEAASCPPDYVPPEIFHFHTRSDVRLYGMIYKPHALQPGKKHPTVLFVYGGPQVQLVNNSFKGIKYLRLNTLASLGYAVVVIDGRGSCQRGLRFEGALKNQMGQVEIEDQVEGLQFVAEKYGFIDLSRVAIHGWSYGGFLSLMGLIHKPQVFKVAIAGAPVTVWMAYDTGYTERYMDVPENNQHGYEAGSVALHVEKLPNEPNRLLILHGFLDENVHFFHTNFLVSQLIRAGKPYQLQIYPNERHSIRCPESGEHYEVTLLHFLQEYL
Description: Accordingly, the peptide is capable of inhibiting the activity of wild-type DPP9 (SEQ ID NO: 6) to a level of 35 to 5% of the activity of wild-type DPP9 (SEQ ID NO: 6) if not inhibited, as determined in an assay using 25 nM purified DPP9, 0.2 mM GP-AMC, and 14 μM of the peptide to be tested, in TB buffer (20 mM Hepes/KOH pH 7.3, 110 mM potassium acetate, 2 mM Mg acetate, 0.5 mM EGTA), supplemented with 0.2% Tween-20, 1 mM dithiothreitol. Release of AMC from GP-AMC is measured using the Appliskan microplate fluorimeter (Thermo Scientific) with 380 nm (excitation) and 480 nm (emission) filters and the Skanit software, and analysed using the Prism software.
(§1) Kinetics assays: Purified recombinant DPP9 (25 nM) was incubated with varying concentrations of GP-AMC, in TB supplemented with 0.2% Tween-20, 1 mM ditiothreitol. For inhibition assays, inhibitory peptides were added directly to the reaction mixture. For activation by SUMO 0.2 mg/ml BSA, was added to the buffer to prevent non specific binding. DPP9 were incubated with 2.5 μM of either SUMO1, SUMO1 E67A, SUMO2 for 2 hour on ice prior to the assay. Alternatively DPP9 was incubated with 1 μM of RanGAP or RanGAP modified with either SUMO1 or SUMO2 for 2 hours prior to the assay. Fluorescence was measured using the Appliskan microplate fluorimeter (Thermo Scientific) with 380 nm (excitation) and 480 nm (emission) filters and the Skanit software, and analysed using the Prism software. Each experiment was performed at least three times, in replicates of four.
To improve the inhibition of DPP9, the inventors tested several peptide libraries composed of truncated variants of the EIL peptide (>80% pure, ordered from Genescript). These peptides were incubated with recombinant DPP9 and analysed GP-AMC hydrolysis. AMC release was then compared to samples containing either DPP9 alone, or the EIL peptide.

DPP9 [3] = target: T1, DPP9; assay: Kinetics assay, Ki for inhibition of DPP9 (GP-AMC hydrolysis); format: biochemical
Description: (§2) Enzyme kinetics and the Ki of DPP8 or DPP9 may be determined as follows: 25 nM purified recombinant enzyme (DPP9 or DPP8) are incubated with varying concentrations of GP-AMC ([…] GP-AMC), in TB buffer (20 mM Hepes/KOH pH 7.3, 110 mM potassium acetate, 2 mM Mg acetate, 0.5 mM EGTA), supplemented with 0.2% Tween-20, 1 mM dithiothreitol. Experiments are performed in triplicates. To measure Ki values, for each set of experiments, inhibitory peptides are added to DPP9 or DPP8. Peptide concentrations tested are in the range between 0.04 to 50 μM. Release of AMC from GP-AMC is measured using the Appliskan microplate fluorimeter (Thermo Scientific) with 380 nm (excitation) and 480 nm (emission) filters and the Skanit software, and analysed using the Prism software.
(§3) A&B 25 nM purified recombinant (A) DPP9 or (B) DPP8 were incubated with varying concentrations of the EIL peptide (0, 3.3 μM and 6.6 μM) and tested for hydrolysis of GP-AMC (1000, 500, 250, 125, 0 μM). C. 25 nM DPPIV was tested for the hydrolysis of GP-AMC (500, 250, 125, 0 μM) in the presence of 0 or 13 μM EIL peptide. Fluorescence was measured using the Appliskan microplate fluorimeter (Thermo Scientific) with 380 nm (excitation) and 480 nm (emission) filters and the Skanit software, and analysed using the Prism software. Each experiment was performed at least three times, in replicates of four.
as §1

DPPIV = DPPIV (Homo sapiens, UniProt P27487); assay: GP-AMC hydrolysis by DPPIV in the presence of peptide; format: biochemical; conditions: concentrations measured up to 50 μM
DPPIV, sequence (P27487 whole entry): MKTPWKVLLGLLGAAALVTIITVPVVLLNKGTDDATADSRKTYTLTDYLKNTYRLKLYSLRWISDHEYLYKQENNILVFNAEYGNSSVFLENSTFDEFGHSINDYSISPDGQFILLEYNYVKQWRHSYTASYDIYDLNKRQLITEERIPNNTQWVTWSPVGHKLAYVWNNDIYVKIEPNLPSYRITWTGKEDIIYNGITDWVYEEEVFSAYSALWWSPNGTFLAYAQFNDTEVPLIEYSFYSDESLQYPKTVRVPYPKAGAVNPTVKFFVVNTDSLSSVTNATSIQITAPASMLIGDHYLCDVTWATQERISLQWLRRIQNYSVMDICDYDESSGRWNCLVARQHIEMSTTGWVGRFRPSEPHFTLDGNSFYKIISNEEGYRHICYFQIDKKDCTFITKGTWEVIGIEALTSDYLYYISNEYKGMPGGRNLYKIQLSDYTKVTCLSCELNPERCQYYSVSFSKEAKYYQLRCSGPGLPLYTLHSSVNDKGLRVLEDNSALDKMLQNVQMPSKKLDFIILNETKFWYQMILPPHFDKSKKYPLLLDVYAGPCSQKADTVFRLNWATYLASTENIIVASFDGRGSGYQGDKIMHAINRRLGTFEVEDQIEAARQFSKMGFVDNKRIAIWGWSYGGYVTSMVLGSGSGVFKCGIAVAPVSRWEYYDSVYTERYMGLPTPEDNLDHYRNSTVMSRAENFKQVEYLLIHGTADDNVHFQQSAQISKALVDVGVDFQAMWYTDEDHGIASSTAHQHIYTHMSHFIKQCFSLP
Description: Preferably, the peptide is capable of inhibiting the activity by wild-type DPP9 (SEQ ID NO: 6) to a level of 30 to 5%, 29 to 5%, 28 to 5%, 27 to 5%, 26 to 5%, 25 to 5%, 24 to 5%, 23 to 5%, 22 to 5%, 21 to 5%, 20 to 5%, 19 to 5%, 18 to 5%, 17 to 5%, 16 to 5%, 15 to 5%, 14 to 5%, 13 to 5%, 12 to 5%, 11 to 5%, 10 to 5%, 9 to 5%, 8 to 5%, such as 7.5 to 5% of the activity of wild-type DPP9 (SEQ ID NO: 6) if not inhibited. […] Release of AMC from GP-AMC is measured using the Appliskan microplate fluorimeter (Thermo Scientific) with 380 nm (excitation) and 480 nm (emission) filters and the Skanit software, and analysed using the Prism software.
as §3

HeLa cells [4] = assay: Cytosolic prolyl peptidase activity of HeLa cells treated with peptide alone or with Pep-1; format: cell-based, human; conditions: 5 μM peptide, 30 min, also in the absence of carrier peptide Pep-1
Description: In another experiment, HeLa cells were treated for 30 minutes with either 5 μM […] (SEQ ID NO: 38) alone or in complex with the carier peptide Pep-1. Cells were then typsinized and cytosolic extracts were prepared and tested for cleavage of the model substrate GP-AMC. Upper panel: […] (SEQ ID NO: 38) was allowed to form a complex with carrier peptide Pep-1 at a molar ratio of 1:10 (cargo:carrier) in FCS free DMEM for 30 min at 37° C. Lower panel: As a comparison, the inhibitory peptide […] was used also in the absence of carrier peptide, at the same concentration. For control, the solvent DMSO was used. These mixtures were overlaid onto HeLa cells allowing the entry for 30 minutes at 37° C. Cells were then trypsinized and lysed in TB buffer containing 0.2% Tween. After ultracentrifugation, the cytosolic extract were probed for DPP activity using […] of the fluorogenic substrate GP-AMC. Each experiment was performed in triplicates.

DPP8 = target: T2, DPP8 (Homo sapiens, UniProt Q6V1X1); assay: Kinetics assay, Ki for inhibition of DPP8 (GP-AMC hydrolysis); format: biochemical
T2 construct: made in house; host or cells: Sf9 insect cells (baculovirus)
T2 sequence (Q6V1X1 whole entry): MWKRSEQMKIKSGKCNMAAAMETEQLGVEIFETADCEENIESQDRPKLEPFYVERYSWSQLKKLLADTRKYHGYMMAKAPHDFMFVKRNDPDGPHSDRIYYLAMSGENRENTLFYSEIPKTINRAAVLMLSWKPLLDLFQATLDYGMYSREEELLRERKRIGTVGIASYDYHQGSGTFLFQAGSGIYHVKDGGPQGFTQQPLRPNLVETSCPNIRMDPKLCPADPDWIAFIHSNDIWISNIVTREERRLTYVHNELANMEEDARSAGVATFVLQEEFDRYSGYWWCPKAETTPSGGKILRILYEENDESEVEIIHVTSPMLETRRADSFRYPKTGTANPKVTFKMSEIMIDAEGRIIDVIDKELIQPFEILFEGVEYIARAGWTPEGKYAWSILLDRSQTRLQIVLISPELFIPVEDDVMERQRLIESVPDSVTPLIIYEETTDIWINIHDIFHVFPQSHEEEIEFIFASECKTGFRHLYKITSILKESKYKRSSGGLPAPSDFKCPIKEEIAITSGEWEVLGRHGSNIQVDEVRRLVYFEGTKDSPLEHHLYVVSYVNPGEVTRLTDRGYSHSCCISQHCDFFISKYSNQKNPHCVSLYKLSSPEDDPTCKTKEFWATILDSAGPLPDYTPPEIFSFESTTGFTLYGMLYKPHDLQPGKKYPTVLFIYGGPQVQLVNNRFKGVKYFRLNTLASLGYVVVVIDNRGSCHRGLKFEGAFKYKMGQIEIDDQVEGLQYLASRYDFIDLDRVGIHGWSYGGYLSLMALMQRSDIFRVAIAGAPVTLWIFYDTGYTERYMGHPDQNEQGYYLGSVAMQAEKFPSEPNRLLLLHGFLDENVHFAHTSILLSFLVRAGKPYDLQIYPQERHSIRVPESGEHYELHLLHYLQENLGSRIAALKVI
Description: as §2, §3

HEK293 cells = assay: Cytosolic prolyl peptidase activity of HEK293 cells treated with peptide plus carrier Peptide 1; format: cell-based, human; conditions: 5 μM peptide with 100 μM Peptide 1, 30 min, 5 μg extract, 500 μM GP-AMC
Description: Cells were incubated for 30 minutes with 0 μM, 5 μM or 10 μM […] (SEQ ID NO: 40) and 100 μM carrier pep-1. Cytosolic extracts of cells (5 μg) were then tested for hydrolysis of 0.5 mM GP-AMC.
The inventors tested whether the inhibitory peptides can be inserted into cells. For this purpose the inventors established a method using a well characterized carrier peptide: Peptide 1 ([…]; SEQ ID NO: 48), in combination with […] (SEQ ID NO: 40). To test for effective inhibition, the inventors measured for hydrolysis of an artificial DPP8 and DPP9 substrate: GP-AMC, specifically in cytosolic extracts. For this, 5 μM or 10 μM of […] (SEQ ID NO: 40) were incubated with 100 μM Peptide 1, at 37° C. for 30 minutes, in […] DMEM without FCS, supplemented with glutamine and antibiotics. Once a complex was formed between the […] (SEQ ID NO: 40) and peptide 1, it was added to HEK293 cells (human embryonic kidney cells), grown in 24 well plates (50% confluence), and incubated for 30 minutes at 37° C. Cells were then trypsinized and washed twice with PBS buffer. Cell pellet was shock frozen in liquid nitrogen. […] Fluorescence was measured using the Appliskan microplate fluorimeter (Thermo Scientific) with 380 nm (excitation) and 480 nm (emission) filters and the Skanit software, and analysed using the Prism software.

SUMO1-DPP9 interaction = target: T3, SUMO1-DPP9 interaction (Homo sapiens, UniProt P63165); assay: ELISA: competition of SUMO1 binding to immobilized DPP9; conditions: SUMO1 pre-incubated with varying concentrations of peptide
T3 construct: made in house; DPP9: Sf9 insect cells
T3 sequence (P63165 2-97 limits assumed): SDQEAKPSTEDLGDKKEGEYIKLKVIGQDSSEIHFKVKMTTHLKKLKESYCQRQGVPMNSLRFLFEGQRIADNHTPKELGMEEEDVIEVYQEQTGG
Description: A. HA-tagged DPP9 mutants (DPP9V285A, DPP9V287A, DPP9I288A and DPP9V290) were expressed in HEK293T cells and purified using anti-HA beads agarose. Purified DPP9 proteins (input) were then incubated with SUMO1-immobilized beads. Bound DPP9 was eluted and analysed by western blotting using anti HA antibodies. B. Alignment of the amino-acid sequences corresponding to the ‘arms’ of DPP9 (SEQ ID NO: 3), DPP8 (SEQ ID NO: 4) and DPPIV (SEQ ID NO: 5). C A homology model of DPP9 (published by (Park et al., 2008)), shown from the ‘back’ side and the ‘front’ (180° rotation) side, which also reveal the so-called side opening. Color code: the hydrolase domain is dark grey, the eight-bladed propeller is light grey and the extended SUMO-binding-arm is indicated. D. Results of an ELISA assay. […] The SUMO1-peptide mix was then added to immobilized DPP9, and interacting SUMO1 was quantified using SUMO1-specific antibodies.
ELISA: A 96 well plate (Immuno 96 MicroWell™ Solid Plates, Nunc) was coated with 600 ng purified recombinant proteins per well in 100 μl TB, overnight at 4° C. […] Interacting proteins were detected using specific antibodies diluted in ELISA buffer: goat anti DPP9 antibody or anti GMP antibody (SUMO1). […] Absorbance was measured at 420 nm on an Appliskan microplate fluorimeter (Thermo Scientific) and the Skanit software. […]

With H-SLRFLYEG the “reduction in cell proliferation” value (HeLa cells [1]) was “at least 50%”, the “% DPP9 activity (Mean)” value (DPP9 [2]) was 10.92% and the “fold increased efficiency compared to the EIL peptide (Ki DPP9)” value (DPP9 [3]) was 18.5 fold. For the same substance, the pKi (DPP9 [3]; read-out: Ki for DPP9) was 6.40, the “inhibitory effect towards DPPIV” value (DPPIV) was “no inhibitory effect” and the “cytosolic prolyl peptidase activity after exposure of cells” value (HeLa cells [4]) was “inhibits cytosolic prolyl peptidase activity”. For the same substance, the pKi (DPP8) was 5.44 and the “fold lower affinity for DPP8 compared to DPP9” value (DPP8) was 9 fold.
SLRFLYAG was tested, and the “inhibition of cytosolic prolyl peptidase activity” value (HEK293 cells) was about 30%.
With “VEVIHVPSPALEERKTDSYR (listed as Homo sapiens) [DPP9-arm peptide, peptide corresponding to the extended arm of DPP9 (285-304)]” the “competition with DPP9 for binding to SUMO1” value (SUMO1-DPP9 interaction) was “competed with DPP9 for binding to SUMO1 in a concentration dependent manner”.
